{"source": "paper PMC5218480", "about": "(PLoS ONE, 2017)", "test_system": "MV-4-11 cells", "experiment": "Gene expression microarray analysis (Affymetrix PrimeView) and GSEA", "type": "cell-based, human", "set-up": "RFU PODN (11730768_x_at) / Fold change /veh PODN (11730768_x_at) / RFU LINC00158 (11744669_a_at) / Fold change /veh LINC00158 (11744669_a_at) / RFU DUSP10 (11751237_a_at) / Fold change /veh DUSP10 (11751237_a_at) / RFU ID3 (11757404_x_at) / Fold change /veh ID3 (11757404_x_at) / RFU PLEKHG5 (11737974_s_at) / Fold change /veh PLEKHG5 (11737974_s_at) / RFU LRRC4B (11730491_at) / Fold change /veh LRRC4B (11730491_at) / RFU GIMAP4 (11747438_a_at) / Fold change /veh GIMAP4 (11747438_a_at) / RFU KRT8 (11758183_x_at) / Fold change /veh KRT8 (11758183_x_at) / RFU CNN1 (11734310_a_at) / Fold change /veh CNN1 (11734310_a_at) / RFU VPS37D (11726825_at) / Fold change /veh VPS37D (11726825_at) / RFU C10orf10 (11716522_x_at) / Fold change /veh C10orf10 (11716522_x_at) / RFU KIR2DL2 /// KIR2DL4 /// KIR2DL5A /// KIR2DL5B /// KIR2DS1 /// KIR2DS2 /// KIR2DS3 /// KIR2DS4 /// KIR3DL3 /// KIR3DL3 /// KIR3DS1 (11738374_at) / Fold change /veh KIR2DL2 /// KIR2DL4 /// KIR2DL5A /// KIR2DL5B /// KIR2DS1 /// KIR2DS2 /// KIR2DS3 /// KIR2DS4 /// KIR3DL3 /// KIR3DL3 /// KIR3DS1 (11738374_at) / RFU C1QL1 (11718748_at) / Fold change /veh C1QL1 (11718748_at) / RFU TMPRSS4 (11747572_a_at) / Fold change /veh TMPRSS4 (11747572_a_at) / RFU HAMP (11756126_x_at) / Fold change /veh HAMP (11756126_x_at) / RFU RNFT2 (11725882_a_at) / Fold change /veh RNFT2 (11725882_a_at) / RFU NR4A2 (11747474_a_at) / Fold change /veh NR4A2 (11747474_a_at) / RFU ABCC12 (11746883_a_at) / Fold change /veh ABCC12 (11746883_a_at) / RFU TMEM136 (11760407_x_at) / Fold change /veh TMEM136 (11760407_x_at) / RFU CLDN22 /// WWC2 (11732394_at) / Fold change /veh CLDN22 /// WWC2 (11732394_at) / RFU HLA-DPB1 (11760878_x_at) / Fold change /veh HLA-DPB1 (11760878_x_at) / RFU SPINT1 (11716480_a_at) / Fold change /veh SPINT1 (11716480_a_at) / RFU GAP43 (11754022_s_at) / Fold change /veh GAP43 (11754022_s_at) / RFU A4GNT (11735810_at) / Fold change /veh A4GNT (11735810_at) / RFU PRB3 (11715151_x_at) / Fold change /veh PRB3 (11715151_x_at) / RFU TUBB4B (11761932_at) / Fold change /veh TUBB4B (11761932_at) / RFU CAPN14 (11732068_a_at) / Fold change /veh CAPN14 (11732068_a_at) / RFU TMCC2 (11721928_a_at) / Fold change /veh TMCC2 (11721928_a_at) / RFU IRGQ (11745062_a_at) / Fold change /veh IRGQ (11745062_a_at) / RFU FAM174B (11720279_a_at) / Fold change /veh FAM174B (11720279_a_at) / RFU TMPRSS4 (11748680_a_at) / Fold change /veh TMPRSS4 (11748680_a_at) / RFU FAM212B (11763350_a_at) / Fold change /veh FAM212B (11763350_a_at) / RFU PLEKHG5 (11743358_a_at) / Fold change /veh PLEKHG5 (11743358_a_at) / RFU ZSCAN30 (11745921_a_at) / Fold change /veh ZSCAN30 (11745921_a_at) / RFU CMKLR1 (11741424_a_at) / Fold change /veh CMKLR1 (11741424_a_at) / RFU LOC101060620 /// MAPK8IP1 (11723275_at) / Fold change /veh LOC101060620 /// MAPK8IP1 (11723275_at) / RFU SPTSSB (11747773_x_at) / Fold change /veh SPTSSB (11747773_x_at) / RFU PRSS12 (11739890_at) / Fold change /veh PRSS12 (11739890_at) / RFU BIN1 (11741810_x_at) / Fold change /veh BIN1 (11741810_x_at) / RFU WNT11 (11732464_a_at) / Fold change /veh WNT11 (11732464_a_at) / RFU C10orf10 (11716521_a_at) / Fold change /veh C10orf10 (11716521_a_at) / RFU C5orf56 (11738089_at) / Fold change /veh C5orf56 (11738089_at) / RFU CYB561 (11721691_x_at) / Fold change /veh CYB561 (11721691_x_at) / RFU ANKRD19P (11752326_a_at) / Fold change /veh ANKRD19P (11752326_a_at) / RFU OR2T12 /// OR2T33 /// OR2T8 (11738714_s_at) / Fold change /veh OR2T12 /// OR2T33 /// OR2T8 (11738714_s_at) / RFU VCAN (11748164_a_at) / Fold change /veh VCAN (11748164_a_at) / RFU JSRP1 (11732532_at) / Fold change /veh JSRP1 (11732532_at) / RFU KRTAP10-11 (11738290_x_at) / Fold change /veh KRTAP10-11 (11738290_x_at) / RFU MYO3A (11730013_a_at) / Fold change /veh MYO3A (11730013_a_at) / RFU EBF3 (11725865_a_at) / Fold change /veh EBF3 (11725865_a_at) / RFU CAMK2N1 (11719241_x_at) / Fold change /veh CAMK2N1 (11719241_x_at) / RFU C5orf56 (11738088_a_at) / Fold change /veh C5orf56 (11738088_a_at) / RFU OLFML3 (11715873_a_at) / Fold change /veh OLFML3 (11715873_a_at) / RFU LOC100653217 /// NTM (11731650_a_at) / Fold change /veh LOC100653217 /// NTM (11731650_a_at) / RFU MAPK11 (11762145_a_at) / Fold change /veh MAPK11 (11762145_a_at) / RFU FIZ1 (11724087_x_at) / Fold change /veh FIZ1 (11724087_x_at) / RFU OASL (11726364_x_at) / Fold change /veh OASL (11726364_x_at) / RFU SOX15 (11748057_x_at) / Fold change /veh SOX15 (11748057_x_at) / RFU CD79A (11719716_a_at) / Fold change /veh CD79A (11719716_a_at) / RFU HIST1H1D (11736915_at) / Fold change /veh HIST1H1D (11736915_at) / RFU CASKIN2 (11723855_a_at) / Fold change /veh CASKIN2 (11723855_a_at) / RFU LOC730098 (11760151_x_at) / Fold change /veh LOC730098 (11760151_x_at) / RFU OR4N2 (11742367_at) / Fold change /veh OR4N2 (11742367_at) / RFU PRRT2 (11749266_a_at) / Fold change /veh PRRT2 (11749266_a_at) / RFU SNX32 (11753110_a_at) / Fold change /veh SNX32 (11753110_a_at) / RFU CDHR5 (11726645_a_at) / Fold change /veh CDHR5 (11726645_a_at) / RFU RCAN1 (11760418_a_at) / Fold change /veh RCAN1 (11760418_a_at) / RFU FAM167A (11723789_a_at) / Fold change /veh FAM167A (11723789_a_at) / RFU FAM26E (11764081_at) / Fold change /veh FAM26E (11764081_at) / RFU ISYNA1 (11749810_s_at) / Fold change /veh ISYNA1 (11749810_s_at) / RFU ACY1 (11761880_at) / Fold change /veh ACY1 (11761880_at) / RFU 11764098_at / Fold change /veh 11764098_at / RFU SAMD14 (11745864_x_at) / Fold change /veh SAMD14 (11745864_x_at) / RFU NPB (11741838_a_at) / Fold change /veh NPB (11741838_a_at) / RFU TMPRSS6 (11731388_a_at) / Fold change /veh TMPRSS6 (11731388_a_at) / RFU KRTAP10-2 (11738614_at) / Fold change /veh KRTAP10-2 (11738614_at) / RFU ARHGAP8 /// PRR5-ARHGAP8 (11727945_x_at) / Fold change /veh ARHGAP8 /// PRR5-ARHGAP8 (11727945_x_at) / RFU KRTAP5-7 /// NADSYN1 (11734609_at) / Fold change /veh KRTAP5-7 /// NADSYN1 (11734609_at) / RFU RASL12 (11751679_a_at) / Fold change /veh RASL12 (11751679_a_at) / RFU CDKN2B (11736163_a_at) / Fold change /veh CDKN2B (11736163_a_at) / RFU PRF1 (11729649_at) / Fold change /veh PRF1 (11729649_at) / RFU, ZNF638 /// ZNF638-IT1 / Fold change vs veh, ZNF638 /// ZNF638-IT1 / RFU, PANK3 / Fold change vs veh, PANK3 / RFU, SH3YL1 / Fold change vs veh, SH3YL1 / RFU, ZEB2 / Fold change vs veh, ZEB2 / RFU, NRIP1 / Fold change vs veh, NRIP1 / RFU, PTTG1IP / Fold change vs veh, PTTG1IP / RFU, CAPN2 / Fold change vs veh, CAPN2 / RFU, MED14 / Fold change vs veh, MED14 / RFU, SNORA58 / Fold change vs veh, SNORA58 / RFU, C1orf63 / Fold change vs veh, C1orf63 / RFU, LRRFIP1 / Fold change vs veh, LRRFIP1 / RFU, NDUFAF7 / Fold change vs veh, NDUFAF7 / RFU, SLC12A2 / Fold change vs veh, SLC12A2 / RFU, IBTK / Fold change vs veh, IBTK / RFU, ESF1 / Fold change vs veh, ESF1 / Fold change vs veh, TMEM50B / RFU, TAOK1 / Fold change vs veh, TAOK1 / RFU, ACBD3 / Fold change vs veh, ACBD3 / RFU, TMA16 / Fold change vs veh, TMA16 / RFU, RWDD3 / Fold change vs veh, RWDD3 / RFU, BCAT1 / Fold change vs veh, BCAT1 / RFU, EDEM3 / Fold change vs veh, EDEM3 / RFU, TMEM33 / Fold change vs veh, TMEM33 / RFU, WDR75 / Fold change vs veh, WDR75 / RFU, AHCTF1 / Fold change vs veh, AHCTF1 / RFU, TFRC / Fold change vs veh, TFRC / RFU, ZDHHC17 / Fold change vs veh, ZDHHC17 / RFU, NOM1 / Fold change vs veh, NOM1 / RFU, ARL8B / Fold change vs veh, ARL8B / RFU, ZBTB11 / Fold change vs veh, ZBTB11 / RFU, TAMM41 / Fold change vs veh, TAMM41 / RFU, KIAA1704 /// LOC100996395 / Fold change vs veh, KIAA1704 /// LOC100996395 / RFU, ING1 / Fold change vs veh, ING1 / RFU, TRMT61B / Fold change vs veh, TRMT61B / RFU, FUBP3 / Fold change vs veh, FUBP3 / RFU, TP53 / Fold change vs veh, TP53 / RFU, TNKS2 / Fold change vs veh, TNKS2 / RFU, ZFP14 / Fold change vs veh, ZFP14 / RFU, ACTR2 / Fold change vs veh, ACTR2 / RFU, PPP3R1 / Fold change vs veh, PPP3R1 / RFU, PIK3R1 / Fold change vs veh, PIK3R1 / RFU, HNRNPA1 / Fold change vs veh, HNRNPA1 / RFU, RNF170 / Fold change vs veh, RNF170 / RFU, ZNF28 / Fold change vs veh, ZNF28 / RFU, RNGTT / Fold change vs veh, RNGTT / RFU, OGT / Fold change vs veh, OGT / RFU, BRD1 / Fold change vs veh, BRD1 / RFU, MARS / Fold change vs veh, MARS / RFU, ZNF655 / Fold change vs veh, ZNF655 / RFU, FAHD1 / Fold change vs veh, FAHD1 / RFU, BDP1 / Fold change vs veh, BDP1 / RFU, LRRCC1 / Fold change vs veh, LRRCC1 / RFU, ARID1A / Fold change vs veh, ARID1A / RFU, ZNF146 / Fold change vs veh, ZNF146 / RFU, ZNF330 / Fold change vs veh, ZNF330 / RFU, GPN3 / Fold change vs veh, GPN3 / RFU, C9orf123 / Fold change vs veh, C9orf123 / RFU, N4BP2L2 / Fold change vs veh, N4BP2L2 / RFU, ARFIP1 / Fold change vs veh, ARFIP1 / RFU, FAM179B / Fold change vs veh, FAM179B / RFU, BCL10 / Fold change vs veh, BCL10 / RFU, UHRF1BP1L / Fold change vs veh, UHRF1BP1L / RFU, BET1 / Fold change vs veh, BET1 / RFU, CNOT2 / Fold change vs veh, CNOT2 / RFU, ZNF268 / Fold change vs veh, ZNF268 / Fold change vs veh, ZNF507 / RFU, DGCR2 / Fold change vs veh, DGCR2 / RFU, WDSUB1 / Fold change vs veh, WDSUB1 / Fold change vs veh, HSP90B1 /// MIR3652 / RFU, ADSS / Fold change vs veh, ADSS / RFU, GK / Fold change vs veh, GK / RFU, ZNF148 / Fold change vs veh, ZNF148 / RFU, TAF9 / Fold change vs veh, TAF9 / RFU, SLC1A5 / Fold change vs veh, SLC1A5 / RFU, SLMO2 / Fold change vs veh, SLMO2 / RFU, ABCC4 / Fold change vs veh, ABCC4 / RFU, LOC101060439 /// RAP1B / Fold change vs veh, LOC101060439 /// RAP1B / RFU, RFX7 / Fold change vs veh, RFX7 / RFU, GTPBP10 / Fold change vs veh, GTPBP10 / RFU, CNEP1R1 / Fold change vs veh, CNEP1R1 / RFU, BIVM-ERCC5 /// ERCC5 / Fold change vs veh, BIVM-ERCC5 /// ERCC5 / RFU, ILF3 / Fold change vs veh, ILF3 / RFU 11762660_at / Fold change /veh 11762660_at / RFU VCAN (11757783_s_at) / Fold change /veh VCAN (11757783_s_at) / RFU DDX43 (11728927_at) / Fold change /veh DDX43 (11728927_at) / RFU KRT8 (11758188_x_at) / Fold change /veh KRT8 (11758188_x_at) / RFU NKD1 (11759106_at) / Fold change /veh NKD1 (11759106_at) / RFU SRD5A1 (11742802_a_at) / Fold change /veh SRD5A1 (11742802_a_at) / RFU TPSAB1 /// TPSB2 (11721975_s_at) / Fold change /veh TPSAB1 /// TPSB2 (11721975_s_at) / RFU GSTM3 (11746129_a_at) / Fold change /veh GSTM3 (11746129_a_at) / RFU IL23R (11737362_x_at) / Fold change /veh IL23R (11737362_x_at) / RFU TMEM51 (11727254_a_at) / Fold change /veh TMEM51 (11727254_a_at) / RFU PIWIL2 (11732686_x_at) / Fold change /veh PIWIL2 (11732686_x_at) / RFU ORM1 (11744905_x_at) / Fold change /veh ORM1 (11744905_x_at) / RFU CCDC152 (11743942_at) / Fold change /veh CCDC152 (11743942_at) / RFU ECM1 (11717891_a_at) / Fold change /veh ECM1 (11717891_a_at) / RFU IL23R (11748794_a_at) / Fold change /veh IL23R (11748794_a_at) / RFU TNFAIP8L3 (11732012_x_at) / Fold change /veh TNFAIP8L3 (11732012_x_at) / RFU MBOAT4 (11741988_at) / Fold change /veh MBOAT4 (11741988_at) / RFU 11764193_at / Fold change /veh 11764193_at / RFU TMEM53 (11763286_at) / Fold change /veh TMEM53 (11763286_at) / RFU MAGEB2 (11727129_at) / Fold change /veh MAGEB2 (11727129_at) / RFU TMEM200A (11744735_a_at) / Fold change /veh TMEM200A (11744735_a_at) / RFU CCDC152 (11751479_a_at) / Fold change /veh CCDC152 (11751479_a_at) / RFU FAM211A (11726209_a_at) / Fold change /veh FAM211A (11726209_a_at) / RFU RGS16 (11746705_a_at) / Fold change /veh RGS16 (11746705_a_at) / RFU VCAN (11755009_s_at) / Fold change /veh VCAN (11755009_s_at) / RFU RHOB (11743442_s_at) / Fold change /veh RHOB (11743442_s_at) / RFU RGS16 (11720943_a_at) / Fold change /veh RGS16 (11720943_a_at) / RFU RGS16 (11720944_at) / Fold change /veh RGS16 (11720944_at) / RFU, VPS4B / Fold change vs veh, VPS4B / RFU, CREB1 / Fold change vs veh, CREB1 / RFU, DNAJC13 / Fold change vs veh, DNAJC13 / RFU, GNAQ / Fold change vs veh, GNAQ / RFU, CDK5R1 / Fold change vs veh, CDK5R1 / RFU, ZRANB3 / Fold change vs veh, ZRANB3 / RFU, CUL4A / Fold change vs veh, CUL4A / RFU, CCNY / Fold change vs veh, CCNY / RFU, UFL1 / Fold change vs veh, UFL1 / RFU, COG3 / Fold change vs veh, COG3 / RFU, DIAPH2 / Fold change vs veh, DIAPH2 / RFU, SKA2 / Fold change vs veh, SKA2 / RFU, AFF3 / Fold change vs veh, AFF3 / RFU, LMF1 / Fold change vs veh, LMF1 / RFU, IPO11 / Fold change vs veh, IPO11 / RFU, DFFB / Fold change vs veh, DFFB / RFU, FOXP1 / Fold change vs veh, FOXP1 / RFU, CARD8 / Fold change vs veh, CARD8 / RFU, STRN3 / Fold change vs veh, STRN3 / RFU, ADK / Fold change vs veh, ADK / RFU, RASSF2 / Fold change vs veh, RASSF2 / RFU, WIPF1 / Fold change vs veh, WIPF1 / RFU, LARP1B / Fold change vs veh, LARP1B / RFU, RASA1 / Fold change vs veh, RASA1 / RFU, RB1 / Fold change vs veh, RB1 / RFU, PPFIA1 / Fold change vs veh, PPFIA1 / RFU, MAT2A / Fold change vs veh, MAT2A / RFU, CCT5 / Fold change vs veh, CCT5 / RFU, WDR92 / Fold change vs veh, WDR92 / RFU, CUX1 / Fold change vs veh, CUX1 / RFU, TTC7A / Fold change vs veh, TTC7A / RFU, TMEM135 / Fold change vs veh, TMEM135 / RFU, DEPTOR / Fold change vs veh, DEPTOR / RFU, CPM / Fold change vs veh, CPM / RFU, DNAJB6 / Fold change vs veh, DNAJB6 / RFU, CACNA2D3 / Fold change vs veh, CACNA2D3 / RFU, DTX4 / Fold change vs veh, DTX4 / RFU, TFCP2 / Fold change vs veh, TFCP2 / RFU, GMCL1 /// GMCL1P1 / Fold change vs veh, GMCL1 /// GMCL1P1 / RFU, AEBP2 / Fold change vs veh, AEBP2 / RFU, SNHG1 /// SNORD22 /// SNORD25 /// SNORD26 /// SNORD27 /// SNORD28 /// SNORD29 /// SNORD31 / Fold change vs veh, SNHG1 /// SNORD22 /// SNORD25 /// SNORD26 /// SNORD27 /// SNORD28 /// SNORD29 /// SNORD31 / Fold change (Aza/veh), C12orf56 (ProbeSet 11735607_a_at) / Fold change (ACY-1035/veh), C12orf56 (ProbeSet 11735607_a_at) / Fold change (Aza/veh), FGFR1OP (ProbeSet 11751329_s_at) / Fold change (ACY-1035/veh), FGFR1OP (ProbeSet 11751329_s_at) / Fold change (Aza/veh), VPS36 (ProbeSet 11739960_a_at) / Fold change (ACY-1035/veh), VPS36 (ProbeSet 11739960_a_at) / RFU SYPL1 (11715823_x_at) / Fold change /veh SYPL1 (11715823_x_at) / RFU IGFBP7 (11715501_s_at) / Fold change /veh IGFBP7 (11715501_s_at) / RFU REEP3 (11722064_at) / Fold change /veh REEP3 (11722064_at) / RFU IGLL1 (11728026_x_at) / Fold change /veh IGLL1 (11728026_x_at): dose or concentration left out as unconfirmed", "conditions": "ProbeSet 11755070_a_at; LIST D"}
{"smiles": "Nc1ccc(-c2cccs2)cc1NC(=O)c1ccc2c(c1)cc(C1CC1)n2CCN1CCOCC1", "note": "[ACY-1035]", "values": [{"measurement": "RFU, CARD8", "result": 173.18, "unit": "RFU"}]}
